Patent publication US20230053688A1, “METHODS TO ALTER LATENCY IN EBV+ MALIGNANCIES” (Cornell University, priority 2020, published 2023)
Where two headings read alike, the source gives them in different places.

Test system: LMP1 expression in Kem I cells
Experiment: microbe, parasite or virus in culture
Type: cell-based, EBV
Settings: for fold induction at 2.5 µM: human gammaherpesvirus 4, 48 h
[1] = Kem I cells, 2.5 uM, 48 hours, average of replicates 1 and 2
[2] = Kem I cells, 2.5 uM, 48 hours, fold change in LMP1 transcript vs vehicle
[3] = read-out: Average LMP1 Fold Increase, Kem I cells, 2.5 uM, 48 hours, average of replicates 1 and 2
[4] = read-out: Replicate 1-LMP1 Fold Increase, Kem I cells, 2.5 uM, 48 hours, fold change in LMP1 transcript vs vehicle
[5] = read-out: Replicate 2-LMP1 Fold Increase, Kem I cells, 2.5 uM, 48 hours, fold change in LMP1 transcript vs vehicle
[6] = read-out: Average LMP1 Fold Increase, Kem I cells, dose 2.5 uM, 48 hours, LMP1 transcript by in-well qRT-PCR, average of the two replicates
[7] = read-out: Replicate 1-LMP1 Fold Increase, Kem I cells, dose 2.5 uM, 48 hours, LMP1 transcript by in-well qRT-PCR, screen replicate 1
[8] = read-out: Replicate 2-LMP1 Fold Increase, Kem I cells, dose 2.5 uM, 48 hours, LMP1 transcript by in-well qRT-PCR, screen replicate 2

SMILES | Average LMP1 Fold Increase [1] | Replicate 1-LMP1 Fold Increase [2] | Replicate 2-LMP1 Fold Increase [2] | fold induction at 2.5 µM [3] | fold induction at 2.5 µM [4] | fold induction at 2.5 µM [5] | also measured
O=C(Nc1cc(C(F)(F)F)ccc1N1CCCCC1)c1ccncc1 [SRPIN340] | 0.84 | 1.24 | 0.44 | – | – | – | –
COc1ccc(-n2nc(C(N)=O)c3c2C(=O)N(c2ccc(N4CCCCC4=O)cc2)CC3)cc1 [Apixaban] | – | – | – | 0.32 | 0.4 | 0.24 | –
CC(C)(C#N)c1cc(Cn2cncn2)cc(C(C)(C)C#N)c1 [Anastrozole] | – | – | – | 0.94 | 0.45 | 1.42 | –
Cn1c(=O)cc(N2CCC[C@@H](N)C2)n(Cc2cc(F)ccc2C#N)c1=O [Trelagliptin] | – | – | – | – | – | – | fold induction at 2.5 µM [6]: 0.63; fold induction at 2.5 µM [7]: 0.96; fold induction at 2.5 µM [8]: 0.31
N#CC[C@H](C1CCCC1)n1cc(-c2ncnc3[nH]ccc23)cn1 [Ruxolitinib (INCB018424)] | 0.41 | 0.48 | 0.34 | – | – | – | –
C[C@@H]1O[C@@H](O[C@H]2C[C@@H](O)[C@]3(CO)[C@H]4[C@H](O)C[C@]5(C)[C@@H](C6=CC(=O)OC6)CC[C@]5(O)[C@@H]4CC[C@]3(O)C2)[C@H](O)[C@H](O)[C@H]1O [Ouabain] | – | – | – | 92.1 | 22.8 | 161 | –
CN(C)C(=O)Nc1cccc(-c2ccc(N(C)C)cc2)c1 [Atglistatin] | 0.99 | 0.75 | 1.23 | – | – | – | –
O=S(=O)(c1ccccc1)N(CC(F)(F)F)c1ccc(C(O)(C(F)(F)F)C(F)(F)F)cc1 [T0901317] | – | – | – | – | – | – | fold induction at 2.5 µM [6]: 0.44; fold induction at 2.5 µM [7]: 0.41; fold induction at 2.5 µM [8]: 0.47
CO[C@H]1C[C@@H]2CC[C@@H](C)[C@@](O)(O2)C(=O)C(=O)N2CCCC[C@H]2C(=O)O[C@H]([C@H](C)C[C@@H]2CC[C@@H](OCCO)[C@H](OC)C2)CC(=O)[C@H](C)/C=C(\C)[C@@H](O)[C@@H](OC)C(=O)[C@H](C)C[C@H](C)/C=C/C=C/C=C/1C [Everolimus (RAD001)] | 1.65 | 2.00 | 1.31 | – | – | – | –
CN1CCN(c2nc(C3=C(c4c[nH]c5ccccc45)C(=O)NC3=O)c3ccccc3n2)CC1 [Sotrastaurin] | – | – | – | 0.31 | 0.3 | 0.31 | –
O=C(/C=C/c1ccc(O)c(O)c1)OCCc1ccccc1 [Caffeic Acid Phenethyl Ester] | – | – | – | 0.46 | 0.59 | 0.33 | –
COc1ccc(C2CNC(=O)C2)cc1OC1CCCC1 (stereo not drawn) [Rolipram] | – | – | – | 0.94 | 1.13 | 0.75 | –
CN(Cc1cnc2nc(N)nc(N)c2n1)c1ccc(C(=O)N[C@@H](CCC(=O)O)C(=O)O)cc1 [Abitrexate (Methotrexate)] | 3.17 | 3.70 | 2.64 | – | – | – | –
CCN1CCC[C@H]1CNC(=O)c1cc(S(N)(=O)=O)ccc1OC [Levosulpiride] | – | – | – | 0.5 | 0.7 | 0.3 | –
CC[C@H](C)C(=O)O[C@H]1C[C@@H](C)C=C2C=C[C@H](C)[C@H](CC[C@@H]3C[C@@H](O)CC(=O)O3)[C@H]21 [Lovastatin] | – | – | – | 0.96 | 0.34 | 1.59 | –
Cl.N[C@@H]1C[C@H]1c1ccccc1 (racemic) [Tranylcypromine (2-PCPA) HCl] | – | – | – | – | – | – | Average LMP1 Fold Increase: 0.33 fold; Replicate 1-LMP1 Fold Increase: 0.22 fold; Replicate 2-LMP1 Fold Increase: 0.45 fold
CC(=O)O[C@]1(C(C)=O)CC[C@H]2[C@@H]3C=C(Cl)C4=CC(=O)[C@@H]5C[C@@H]5[C@]4(C)[C@H]3CC[C@@]21C [Cyproterone Acetate] | – | – | – | 0.26 | 0.27 | 0.24 | –
O=C(Nc1ccccc1)c1cc([N+](=O)[O-])ccc1Cl [GW9662] | 0.58 | 0.26 | 0.89 | – | – | – | –
